US11376228B2 (Genifarm Laboratories Inc, priority 2018, dated 2022)
Like-named read-outs stand apart in the source and are kept apart here.

Assays:
Format in all cases: cell-based
[1] = system: human lung cancer cells A549; assay: MTT assay, proliferation of human lung cancer cells A549; conditions: for inhibitory effects on human lung cancer cells A549 (in words): A549, summary of Table 3; for effect compared with control gossypol I-A9, A549: A549, versus gossypol I-A9; for IC50: Homo sapiens, read-out: IC50 on the proliferation of human lung cancer cells A5499
Protocol: (§1) The original culture medium for human lung cancer cells A549 was removed, and human lung cancer cells A549 were rinsed with 2 mL of phosphate buffer saline (PBS), digested with 0.5 mL of pancreatic enzyme for 3 min. 2 mL of culture medium was added to the cells and the mixture was transferred to a centrifuge tube. The mixture was centrifuged (200 g) for 5 min. The supernatant was removed. 2 mL of culture medium was sprayed five times to the remaining solution. 0.5 mL of cell suspension was transferred to an Eppendorf (EP) tube and the cells were counted. The cells were cultured on a 96-well plate, each well having 2000 cells, 3 wells for each compound. The numbers of the required cells and wells and the amount of culture medium were calculated. The cells were diluted by the culture medium. 100 μL culture medium was added to each well and were evenly dispersed, each well containing 2000 cells. The cells were transferred to the wells using a pipette, and cultured in an incubator.
(§2) (2) Adding Compounds to Culture Medium
(§3) The original culture medium was discarded, and the mother liquor of each compound was diluted to final concentrations of 0, 5, 10, 20, 30, 60 and 80 μM, respectively. Each diluent was uniformized. To each head of a multichannel pipette, 100 μL of the diluent was introduced. Three heads were employed. The diluents were added to 3 marked wells (the cells were undamaged) of a tilted 96-well plate, respectively. Different concentrations of diluents were added to three different marked wells and evenly mixed by alternately sucking and blowing with the multichannel pipette 3 times. The 96-well plate was shaken slightly twice, and cultured in a CO2 incubator.
(§4) The cells were cultured in different compounds for 48 h and were then detected. Specifically, a clean bench was turned on for 15 min, and phosphate buffer saline (PBS) was pre-heated in a warm water bath for 15 min. MTT was taken out of a refrigerator at −20 degrees, protected from light and thawed (MTT stock solution was 5 mg/mL). MTT and a culture medium were mixed evenly in a V-shaped groove to yield a mixture comprising 500 μg/mL MTT and a culture medium (a volume ratio thereof being 1:10). 100 μL of the prepared MTT mixture was added to each well of the 96-well plate using the multichannel pipette, and then incubated at 37° C. for an appropriate time (1 h), thereby reducing the MTT to formazan (purple crystals formed in the cells under a microscope, which were different in medicated cells and unmedicated cells). The upper liquid was removed with a white pipette tip attached to a vacuum pump. For each concentration of the compounds, 3 pipette tips were employed. After the incubation, the MTT mixture was discarded, and then 100 μL of DMSO was added to each well using the multichannel pipette. The 96-well plate was shaken in a shaker for 10 min (until the purple crystals were dissolved in the cells under the microscope).
(§5) The absorbance value of the resulting solution was detected at a wavelength of 550 nm with a microplate reader. The survival rate of cells treated with different concentrations of drugs was calculated in accordance with the requirements to make a scatter plot. The IC50 results of each compound on the proliferation of human lung cancer cells A549 were shown in Table 3, where Gossypol I-A9 is a control sample.

[2] = system: human prostate cancer cells PC3; assay: MTT assay, proliferation of human prostate cancer cells PC3; conditions: for IC50: Homo sapiens, 48 h, read-out: IC50 on the proliferation of human prostate cancer cells PC3; for inhibitory effects on human prostate cancer cells PC3 (in words): PC3, summary of Table 4; for effect compared with control gossypol I-A9, PC3: PC3, versus gossypol I-A9
[3] = system: human gastric cancer cells MKN45; assay: MTT assay, proliferation of human gastric cancer cells MKN45; conditions: for IC50: Homo sapiens, read-out: IC50 on the proliferation of human gastric cancer cells MKN45; for inhibitory effects on human gastric cancer cells MKN45 (in words): MKN45, summary of Table 1
Protocol: as §1, with “gastric” for “lung”, “MKN45” for “A549”
as §2
as §3, with “15,” for “10, 20,”, “30, 45 and” for “30,”, “60” for “60 and 80”
as §4
The absorbance value of the cells was measured at a wavelength of 550 nm with a microplate reader. The survival rate of the cells treated with different concentrations of compounds was calculated to make a scatter plot. The IC50 results of each compound on the proliferation of human gastric cancer cells MKN45 were shown in Table 1, where Gossypol I-A9 is a control sample.

[4] = system: human ovarian cancer cells SKOV3; assay: MTT assay, proliferation of human ovarian cancer cells SKOV3; conditions: for IC50: Homo sapiens, read-out: IC50 on the proliferation of human ovarian cancer cells SKOV3; for inhibitory effects on human ovarian cancer cells SKOV3 (in words): SKOV3, summary of Table 2; for effect compared with control gossypol I-A9, SKOV3: SKOV3, versus gossypol I-A9
Protocol: as §1, with “ovarian” for “lung”, “SKOV3” for “A549”
as §2
as §3, with “1, 2, 4, 8” for “5, 10, 20, 30, 60”, “16” for “80”
as §4
as §5, with “ovarian” for “lung”, “SKOV3” for “A549”, “2, wherein” for “3, where”

[5] = SK-OV-3, SKOV3, MTT, 48 h, 0-16 μM

| SMILES | IC50 ([2]; PC3, MTT, 0-32 μM) [µM] | IC50 [4, 5] [µM] | inhibitory effects on human prostate cancer cells PC3 (in words) [2] | effect compared with control gossypol I-A9, PC3 [2] | inhibitory effects on human ovarian cancer cells SKOV3 (in words) [4] | further results |
| --- | --- | --- | --- | --- | --- | --- |
| C#CCOCc1c(C=O)c(O)c(O)c(C)c1-c1ccccc1 [I-A2] | 5 | 11.5 | significant inhibitory effects | superior than the gossypol I-A9 | significant inhibitory effects |  |
| COc1cccc2c(OC)c(Cc3cc(C)c(O)c(O)c3C=O)ccc12 [I-A3] | 6.54 | 6.45 | significant inhibitory effects | superior than the gossypol I-A9 | significant inhibitory effects | effect compared with control gossypol I-A9, SKOV3 [4]: superior to that of the gossypol I-A9 |
| COc1cc(OC)c(Cc2c(C#Cc3ccccc3)c(C)c(O)c(O)c2C=O)c(OC)c1 [I-A5] | 4.19 | 9.79 | significant inhibitory effects | superior than the gossypol I-A9 | significant inhibitory effects |  |
| Cc1cc2c(C(C)C)c(O)c(O)c(C=O)c2c(O)c1-c1c(C)cc2c(C(C)C)c(O)c(O)c(C=O)c2c1O [I-A9, gossypol, reference compound] |  |  |  |  |  | IC50 ([3]; MKN-45, 48 h): 15.4 µM; IC50 ([4]; SK-OV-3, 48 h): 9.55 µM; IC50 ([1]; A549, 48 h): 18.1 µM; IC50 [2]: 10 µM |

Further lines, with some results ahead:

| IC50 ([2]; PC3, MTT, 0-32 μM) [µM] | IC50 [4, 5] [µM] | SMILES | inhibitory effects on human prostate cancer cells PC3 (in words) [2] | effect compared with control gossypol I-A9, PC3 [2] | inhibitory effects on human ovarian cancer cells SKOV3 (in words) [4] | further results |
| --- | --- | --- | --- | --- | --- | --- |
| 4.26 |  | COc1ccc(-c2c(C)c(O)c(O)c(C=O)c2COCc2ccccc2)cc1 [Compound I-29] | significant inhibitory effects | superior than the gossypol I-A9 |  | inhibitory effects on human lung cancer cells A549 (in words) [1]: inhibitory effects; effect compared with control gossypol I-A9, A549 [1]: slightly inferior to that of the Gossypol I-A9; IC50 ([1]; A549, MTT, 48 h, 0-80 μM): 42.1 µM |
| 6.57 |  | Cc1cc(C)cc(-c2c(C)c(O)c(O)c(C=O)c2COCc2ccccc2)c1 [Compound I-45] | significant inhibitory effects | superior than the gossypol I-A9 |  | inhibitory effects on human lung cancer cells A549 (in words) [1]: inhibitory effects; effect compared with control gossypol I-A9, A549 [1]: slightly inferior to that of the Gossypol I-A9; IC50 ([1]; A549, MTT, 48 h, 0-80 μM): 26 µM |
| 13.1 | 5.92 | COC(=O)c1ccc(-c2c(C)c(O)c(O)c(C=O)c2Cc2c(OC)cc(OC)cc2OC)cc1 [Compound I-49] | significant inhibitory effects |  | significant inhibitory effects | IC50 ([3]; MKN-45, MKN45, MTT, 48 h, 0-60 μM): 3.12 µM; inhibitory effects on human gastric cancer cells MKN45 (in words) [3]: significant inhibitory effects; effect compared with control gossypol I-A9, MKN45 ([3]; MKN45, versus gossypol I-A9): better than the control gossypol I-A9; effect compared with control gossypol I-A9, SKOV3 [4]: superior to that of the gossypol I-A9 |
|  | ≥ 35 | COc1cc(OC)c(Cc2cc(C)c(O)c(O)c2CO)c(OC)c1 [Compound I-97] |  |  |  | inhibitory effects on human gastric cancer cells MKN45 (in words) [3]: significant inhibitory effects |
